From publication PMC4104029, “Mechanism of Action of Compound-13: An α1-Selective Small Molecule Activator of AMPK” (Chemistry & Biology, 2014)

Target: T1, AMPK α2/α1 LOOP β1γ1 (Homo sapiens, UniProt P54619+P54646, A386E/A396G/C382H/D376E/DEL348-348/DEL355-359/G349D/G362L/I374V/K364R/K379R/L363T/L395Q/M352L/M370V/P360H/P361H/P372F/P383T/P392S/S377T/S394H/T389P/T390Q)
T1 construct: 6×His (N); made in house; host or cells: E. coli (tricistronic pET15-b construct)
Test: Chimeric AMPK complex activation assay
Format: biochemical
Settings: complex expressed in E. coli; read-out: EC50, allosteric activation
Excerpt: Figure 3 Regulatory Elements within the α-Linker Determine the Isoform Specificity of C2 (A) Diagram illustrating the domain organization of the AMPKα subunit with a global pairwise alignment of a section of the α-linker of human AMPKα1 (Q13131) and AMPKα2 (P54646). Regulatory elements in the α-linker are highlighted, including the α-hook as originally defined by [Xiao et al. (2011)] (pink) and the reassigned sequence (also known as α-RIM2) shaded in orange. The secondary structure for α1 is derived from PDB ID 2Y94. The table summarizes the sequences of the α1/α2 chimeras produced to examine the role of various structural elements in the activation of α2β1γ1 complexes by C2. (B–E) Human AMPKα1/α2 chimeras (defined in A) were generated as complexes with β1γ1 in E. coli. Purified active complexes were assayed for the activation of phosphotransferase activity by AMP and C2, as described in Figure 1. Results (line graphs) are expressed as the fold increase in activity relative to reactions performed in the absence of compound and represent the mean ± SD of three independent experiments. Complexes were also assayed for protection against dephosphorylation and inactivation by PP2Cα, as described in Figures 2C and 2D. Results (bar charts) are expressed as the mean (percentage of control) ± SD of three independent experiments. Representative blots of pT172 and total AMPKα are shown below the bar charts. TEXT PRINTED IN THE PICTURE: (B) C2: AMPK211 - α2/α1 CAT: EC50: ND | (B) AMP: AMPK211 - α2/α1 CAT: EC50: 1.3 ± 0.2 μM | (C) C2: AMPK211 - α2/α1 REG: EC50: 0.009 ± 0.0006 μM | (C) AMP: AMPK211 - α2/α1 REG: EC50: 3.1 ± 0.3 μM | (D) C2: AMPK211 - α2/α1 HOOK: EC50: ND | (D) AMP: AMPK211 - α2/α1 HOOK: EC50: 1.4 ± 0.2 μM | (E) C2: AMPK211 + α2/α1 LOOP: EC50: 0.013 ± 0.001 μM | (E) AMP: AMPK211 + α2/α1 LOOP: EC50: 2.7 ± 0.3 μM […]
AMPK phosphotransferase activity was assayed in reactions (50 μl) containing 50 mM HEPES, pH 7.4, 10 mM MgCl2, 0.1 mM EGTA, 1 mM DTT, 0.01% BRIJ-35, 100 μM [γ-^32P]ATP (∼250 CPM⋅pmol^−1) and 200 μM AMARA (AMARAASAAALARRR). Reactions were started by the addition of AMPK (5 mU), incubated for 20 min at 30°C and quenched by spotting onto P81 and immersion in 75 mM H3PO4. Washed filters were dried and [^32P] incorporation determined by Cherenkov counting. AMPK activity in cell extracts was determined by immunoprecipitation with AMPKα1 or AMPKα2 antibodies from 50 μg material, as previously described ([Hunter et al., 2011]). […]

T1 sequence (Q9Y478 2-270, stated change not applied): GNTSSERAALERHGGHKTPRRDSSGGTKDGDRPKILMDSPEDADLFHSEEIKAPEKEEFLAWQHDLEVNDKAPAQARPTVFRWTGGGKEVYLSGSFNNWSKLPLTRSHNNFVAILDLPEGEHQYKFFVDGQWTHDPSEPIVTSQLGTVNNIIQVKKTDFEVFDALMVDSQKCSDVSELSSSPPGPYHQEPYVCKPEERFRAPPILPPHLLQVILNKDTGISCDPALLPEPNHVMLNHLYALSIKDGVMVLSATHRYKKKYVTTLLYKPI
T1 sequence (P54646 other isoform, or with tags, fused parts or gaps with the stated changes): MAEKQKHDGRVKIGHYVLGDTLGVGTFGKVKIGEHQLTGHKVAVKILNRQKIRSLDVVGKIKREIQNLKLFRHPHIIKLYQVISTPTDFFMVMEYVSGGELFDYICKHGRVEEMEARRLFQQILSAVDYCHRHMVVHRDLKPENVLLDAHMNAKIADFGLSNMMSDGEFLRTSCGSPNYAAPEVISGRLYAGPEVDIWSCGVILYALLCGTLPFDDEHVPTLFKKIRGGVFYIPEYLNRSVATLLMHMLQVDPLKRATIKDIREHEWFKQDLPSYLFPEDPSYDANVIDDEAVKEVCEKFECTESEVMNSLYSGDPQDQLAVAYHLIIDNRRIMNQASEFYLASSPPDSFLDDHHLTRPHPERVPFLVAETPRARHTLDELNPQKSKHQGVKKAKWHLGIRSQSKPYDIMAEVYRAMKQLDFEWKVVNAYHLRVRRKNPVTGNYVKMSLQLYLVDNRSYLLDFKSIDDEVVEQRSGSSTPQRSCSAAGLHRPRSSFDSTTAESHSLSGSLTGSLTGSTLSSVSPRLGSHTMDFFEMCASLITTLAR
T1 sequence (P54619 whole entry, stated change not applied): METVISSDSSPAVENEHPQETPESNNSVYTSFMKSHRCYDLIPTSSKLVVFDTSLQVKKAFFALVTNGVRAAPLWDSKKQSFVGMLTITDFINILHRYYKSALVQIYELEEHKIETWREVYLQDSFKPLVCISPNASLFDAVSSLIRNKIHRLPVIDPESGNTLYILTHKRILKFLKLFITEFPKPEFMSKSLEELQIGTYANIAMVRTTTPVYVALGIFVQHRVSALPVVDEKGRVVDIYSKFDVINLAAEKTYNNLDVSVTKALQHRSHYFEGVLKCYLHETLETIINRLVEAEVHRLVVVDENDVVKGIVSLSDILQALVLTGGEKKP

Compound | EC50 [nM]
Nc1ncnc2c1ncn2[C@@H]1O[C@H](COP(=O)(O)O)[C@@H](O)[C@H]1O [AMP, reference compound] | 2700 ± 300
O=P(O)(O)c1ccc(-c2cc(O)on2)o1 [Compound C2, 5-(5-hydroxyl-isoxazol-3-yl)-furan-2-phosphonic acid] | 13 ± 1
